According to ChEMBL document CHEMBL1201862, “PubChem BioAssay data set” (2004):
Calls of active or inactive are those of the source.

Experiments:
[1] = target: T1, Apoptotic protease-activating factor 1 (Homo sapiens, UniProt O14727); format: functional
T1 sequence (O14727 whole entry): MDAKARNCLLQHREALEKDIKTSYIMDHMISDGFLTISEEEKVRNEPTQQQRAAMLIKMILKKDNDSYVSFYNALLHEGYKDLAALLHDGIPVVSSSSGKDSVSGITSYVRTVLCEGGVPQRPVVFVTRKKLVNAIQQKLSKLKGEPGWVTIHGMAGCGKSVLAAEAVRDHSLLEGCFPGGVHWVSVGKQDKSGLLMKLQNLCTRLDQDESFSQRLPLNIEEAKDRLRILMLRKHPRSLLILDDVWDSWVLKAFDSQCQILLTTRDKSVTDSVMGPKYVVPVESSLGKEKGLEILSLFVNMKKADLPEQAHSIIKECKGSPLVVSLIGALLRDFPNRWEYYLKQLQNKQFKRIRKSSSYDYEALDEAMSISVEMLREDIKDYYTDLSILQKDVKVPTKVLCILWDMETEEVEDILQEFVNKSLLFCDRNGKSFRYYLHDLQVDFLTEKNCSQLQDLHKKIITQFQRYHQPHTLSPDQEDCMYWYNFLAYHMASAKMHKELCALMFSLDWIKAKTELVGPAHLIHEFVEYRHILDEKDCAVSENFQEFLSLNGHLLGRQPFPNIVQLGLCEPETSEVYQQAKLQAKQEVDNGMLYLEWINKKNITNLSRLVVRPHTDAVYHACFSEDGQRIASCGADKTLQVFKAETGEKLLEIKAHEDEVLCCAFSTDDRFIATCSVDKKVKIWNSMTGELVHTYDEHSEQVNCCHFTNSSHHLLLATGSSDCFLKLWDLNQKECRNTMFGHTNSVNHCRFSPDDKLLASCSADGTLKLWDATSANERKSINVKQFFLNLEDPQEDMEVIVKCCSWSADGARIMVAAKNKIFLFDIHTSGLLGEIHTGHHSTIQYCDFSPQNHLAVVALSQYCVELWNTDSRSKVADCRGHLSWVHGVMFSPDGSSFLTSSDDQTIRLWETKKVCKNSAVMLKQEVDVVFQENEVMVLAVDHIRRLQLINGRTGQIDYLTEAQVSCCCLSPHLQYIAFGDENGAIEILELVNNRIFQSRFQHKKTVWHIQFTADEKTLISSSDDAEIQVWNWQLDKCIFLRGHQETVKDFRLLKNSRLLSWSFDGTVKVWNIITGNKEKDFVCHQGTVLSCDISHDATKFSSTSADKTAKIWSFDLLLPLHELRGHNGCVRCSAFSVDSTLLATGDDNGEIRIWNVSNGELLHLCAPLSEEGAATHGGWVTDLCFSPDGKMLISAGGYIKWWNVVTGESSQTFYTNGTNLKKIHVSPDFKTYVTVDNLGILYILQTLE

[2] = target: T2, Short transient receptor potential channel 4 (Mus musculus, UniProt Q9QUQ5); assay: block of DAMGO-driven TRPC4 calcium entry – cell-based, HEK293 TRPC4/mu-opioid, Fluo-4 calcium, dose response (AID 434942); format: functional;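 note: potency of inhibitors blocking the TRPC4 calcium response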
T2 sequence (Q9QUQ5 whole entry): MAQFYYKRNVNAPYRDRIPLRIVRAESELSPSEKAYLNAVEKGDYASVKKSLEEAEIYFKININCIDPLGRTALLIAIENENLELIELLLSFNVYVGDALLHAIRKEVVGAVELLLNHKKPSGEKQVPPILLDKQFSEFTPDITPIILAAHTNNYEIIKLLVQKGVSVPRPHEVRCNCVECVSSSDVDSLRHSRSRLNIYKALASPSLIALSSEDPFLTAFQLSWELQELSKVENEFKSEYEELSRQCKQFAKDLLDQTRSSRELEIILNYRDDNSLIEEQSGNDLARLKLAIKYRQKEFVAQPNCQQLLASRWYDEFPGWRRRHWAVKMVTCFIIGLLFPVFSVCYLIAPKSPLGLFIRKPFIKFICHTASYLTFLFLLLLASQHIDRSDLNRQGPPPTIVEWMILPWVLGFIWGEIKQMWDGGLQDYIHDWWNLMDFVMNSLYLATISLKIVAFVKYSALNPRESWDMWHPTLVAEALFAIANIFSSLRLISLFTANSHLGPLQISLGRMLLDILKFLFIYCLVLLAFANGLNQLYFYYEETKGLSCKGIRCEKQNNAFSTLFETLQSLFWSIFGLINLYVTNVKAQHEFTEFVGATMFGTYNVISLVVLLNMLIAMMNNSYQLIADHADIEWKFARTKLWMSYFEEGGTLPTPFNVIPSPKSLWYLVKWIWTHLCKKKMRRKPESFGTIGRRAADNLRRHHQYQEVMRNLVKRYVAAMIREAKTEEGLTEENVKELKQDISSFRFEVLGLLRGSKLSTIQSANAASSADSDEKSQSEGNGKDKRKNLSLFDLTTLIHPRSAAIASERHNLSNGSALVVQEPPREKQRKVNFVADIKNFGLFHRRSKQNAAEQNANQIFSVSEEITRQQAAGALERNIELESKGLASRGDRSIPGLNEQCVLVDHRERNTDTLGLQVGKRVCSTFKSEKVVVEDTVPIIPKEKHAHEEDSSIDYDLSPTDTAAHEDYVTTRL

For `COc1ccc(CNC(=O)c2c(C)oc3c2C(=O)c2ccccc2C3=O)cc1`, the IC50 [1] was 23.1 µM (active).
`CC(C)c1ccc(S(=O)(=O)/N=C2\C=C(NS(=O)(=O)c3ccccc3)C(=O)c3ccccc32)cc1` was tested, and the EC50 [2] was 7.5 µM (active).
